The values below come from patent US7504537B2, “Hydroxamic acid derivative and MMP inhibitor containing the same as active ingredient” (Dainippon Sumitomo Pharma Co., Ltd., priority 2001, dated 2009).

What all share (assay type): biochemical
Test [1] addresses T1, MMP-2 (Homo sapiens, UniProt P08253).
T1 construct: purchased Boeringer Manheim (Roche Diagnostics)
T1 sequence (P08253 110-660): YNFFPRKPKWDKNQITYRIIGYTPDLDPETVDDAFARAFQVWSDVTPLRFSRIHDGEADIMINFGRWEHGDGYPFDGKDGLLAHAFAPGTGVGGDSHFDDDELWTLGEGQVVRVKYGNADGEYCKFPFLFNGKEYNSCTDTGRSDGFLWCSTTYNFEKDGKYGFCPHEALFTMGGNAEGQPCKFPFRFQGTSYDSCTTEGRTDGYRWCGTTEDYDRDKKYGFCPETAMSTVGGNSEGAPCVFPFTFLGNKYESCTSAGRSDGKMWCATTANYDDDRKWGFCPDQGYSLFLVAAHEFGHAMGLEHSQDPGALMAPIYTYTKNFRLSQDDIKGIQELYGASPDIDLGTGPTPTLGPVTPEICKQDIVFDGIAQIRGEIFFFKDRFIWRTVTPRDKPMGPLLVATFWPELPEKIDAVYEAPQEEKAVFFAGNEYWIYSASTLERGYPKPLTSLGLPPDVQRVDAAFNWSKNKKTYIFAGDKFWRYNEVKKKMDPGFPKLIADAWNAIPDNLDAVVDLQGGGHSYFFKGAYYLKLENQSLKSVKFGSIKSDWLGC
Put plainly: Test 3 MMP-2 inhibition activity test (gelatinase activity assay kit). Particulars: activated human MMP-2, biotin labeled gelatin. On the procedure:
TTC buffer solution was attached to a MMP-2 enzyme assay kit, and the solution was made of 50 mM tris, 1 mM calcium chloride solution and 0.05% Triton X-100 solution, and was adjusted to pH 7.5.
Test 3 MMP-2 Inhibition Activity Test
MMP-2 enzyme assay kit (Gelatinase Activity Assay, Roche.Diagonistics) was used.
A mixture of 1.2U human MMP-2 (20 μl, Boeringer Manheim 30U freezed dry product), TTC buffer (980 μl) and 2.5 mM 4-aminophenyl mercuric acetate solution (144 μl) was incubated at 37° C. for 30 minutes and then it was preserved under ice cooling until use.
A mixture of DMSO solution (2 μl) containing a definite concentration of the compound, biotin labeled gelatin (188 μl) and activated MMP-2 solution (10 μl) was put on a 96 well-assay plate (protein nonabsorbance type), well agitated and incubated at 37° C. for 1 hour. This solution was transferred to a Streptavidin-coating plate and agitated at 15° C, to 30° C. for 30 minutes. And then the solution was washed with TTC buffer solution (200 μl) three times. Thereto was added Streptavidin-POD (200 μl) and the mixture was agitated at 15° C. to 25° C. for 60 minutes, followed by washing with TTC buffer (200 μl) three times. Then, ABTS solution (200 μl) was added thereto and after standing at room temperature for 40 minutes, furuorescence intensity was measure at 405 nm and IC50 was calculated.
In case of the above test, a control and a blank were prepared when the well was prepared as mentioned below. DMSO (2 μl) was used as a control instead of a sample solution. In the case of a blank, DMSO (2 μl) instead of the sample solution and the solution (10 μl) prepared in the same manner as preparation of activated MMP-2 solution but without adding 1.2U human MMP-2, instead of activated MMP-2 solution (10 μl), were used.

Test [2] has as its target MMP-9 (Homo sapiens, UniProt P14780). Put plainly: Test 4 MMP-9 inhibiting activity test (biotin labeled gelatin). As to conditions: activated human MMP-9, biotin labeled gelatin; read-out: MMP-9 inhibition activity value. The protocol:
Test 4 MMP-9 Inhibiting Activity Test
A mixture of buffer solution (190 μl; pH 7.5 solution containing 50 mM Tris-HCl solution, 0.5 m sodium chloride solution and 5 mM calcium chloride solution), human MMP-9 (10 μl) and trypsin solution (20 μl; trypsin 3 mg in activated buffer (5 ml)) was incubated at 37° C. for 10 minutes. Thereto was added aprotinine solution (20 μl; aprotinine (3 mg) in buffer (5 ml)) and the mixture was incubated at 37° C. for 10 minutes, followed by addition of buffer (2 ml). The mixture was preserved under cooling with ice until use.
A mixture of DMSO solution (2 μl) containing definite concentration of the compound, biotin labeled gelatin (188 μl) and activated MMP-9 solution (10 μl) was put on a 96 well-assay plate (protein nonabsorbance type), well agitated, and incubated at 37° C. for 1 hour. This solution was transferred to Streptavidin-coating plate, and agitated at 15° C. to 30° C. for 30 minutes. And then the solution was washed with TTC buffer solution (200 μl) three times. Thereto was added Streptavidin-POD (200 μl) and the mixture was agitated at 15° C. to 25° C. for 60 minutes, followed by washing with TTC buffer (200 μl) three times. Then, ABTS solution (200 μl) was added thereto and after standing at room temperature for 40 minutes, furuorescence intensity was measured at 405 nm and IC50 was calculated.
In case of the above test, DMSO (2 μl) was used as a control instead of a sample solution. In the case of a blank, DMSO (2 μl) instead of the sample solution and the solution (10 μl) prepared in the same manner as preparation of […] but without adding 1.2 Uhuman MMP-9, instead of activated MMP-9 solution (10 μl), were used.

The target in test [3] is T2, MMP-1 (Homo sapiens, UniProt P03956).
T2 construct: calbiochem cat; purchased calbiochem 444208; host or cells: human rheumatic synovium fibroblast
T2 sequence (P03956 100-469): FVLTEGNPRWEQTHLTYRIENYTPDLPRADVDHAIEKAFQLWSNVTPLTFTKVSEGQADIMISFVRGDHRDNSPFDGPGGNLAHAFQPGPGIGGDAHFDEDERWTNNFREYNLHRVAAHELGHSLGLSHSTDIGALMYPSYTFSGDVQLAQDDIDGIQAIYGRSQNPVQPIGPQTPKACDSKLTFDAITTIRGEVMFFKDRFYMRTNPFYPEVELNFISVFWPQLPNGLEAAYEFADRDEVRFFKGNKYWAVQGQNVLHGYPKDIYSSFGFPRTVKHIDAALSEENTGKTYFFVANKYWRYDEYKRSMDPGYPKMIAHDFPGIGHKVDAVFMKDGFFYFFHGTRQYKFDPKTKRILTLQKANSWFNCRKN
Put plainly: Test 6 MMP-1 inhibition activity test. Particulars: MMP-1 from human rheumatic synovium fibroblast, activated with AMPA. The protocol:
Test 6 MMP-1 Inhibition Activity Test
MMP-1 (stroma collagenase: EC3.4.24.7, human rheumatic synovium fibroblast, calbiochem cat. 444208) was activated with AMPA at 37° C. for 60 minutes. A test compound was preincubated with activated MMP-1 at 37° C. for 60 minutes in the reaction mixture containing 50 mM MOPS (pH 7.2), 10 mM aqueous calcium chloride solution, and 10 μM zinc chloride. Thereto was added 25 μM Mca-Pro-Leu-Dpa-Ala-Arg-NH2, and the mixture was incubated at 37° C. for 120 minutes. The enzyme activity was measured by fluorescence intensity of Mca-Pro-Leu-Gly, and IC50 was calculated.

MMP-9, sequence (P14780 107-707 limits assumed): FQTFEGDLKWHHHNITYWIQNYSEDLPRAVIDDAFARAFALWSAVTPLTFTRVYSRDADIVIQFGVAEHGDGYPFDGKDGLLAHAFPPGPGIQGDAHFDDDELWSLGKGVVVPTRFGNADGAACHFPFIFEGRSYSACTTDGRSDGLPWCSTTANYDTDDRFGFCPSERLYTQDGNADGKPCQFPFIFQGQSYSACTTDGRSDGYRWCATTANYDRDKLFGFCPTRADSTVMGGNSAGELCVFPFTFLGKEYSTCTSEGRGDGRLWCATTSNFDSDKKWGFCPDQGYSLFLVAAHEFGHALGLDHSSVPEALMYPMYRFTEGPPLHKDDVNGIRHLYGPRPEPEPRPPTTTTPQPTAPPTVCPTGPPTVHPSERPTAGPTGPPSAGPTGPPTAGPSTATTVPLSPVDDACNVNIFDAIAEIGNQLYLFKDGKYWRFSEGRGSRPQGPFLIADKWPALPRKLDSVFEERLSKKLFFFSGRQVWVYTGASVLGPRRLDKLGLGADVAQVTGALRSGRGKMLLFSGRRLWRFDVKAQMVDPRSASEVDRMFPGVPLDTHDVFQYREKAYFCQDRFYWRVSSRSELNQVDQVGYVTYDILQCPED

With `CC(C)CN(C1(C(=O)NO)CCCC1)S(=O)(=O)c1ccc(Oc2ccc(S(C)(=O)=O)cc2)cc1` [Example 2, N-hydroxy 1-[isobutyl({4-[4-(methylsulfonyl)phenoxy]phenyl}sulfonyl)amino]cyclopentanecarboxamide], the results for the IC50 in test [1], in test [2] and in test [3] were less than 100 nM, 300 nM and 7210 nM, respectively.

Turning to `CC(C)OCCN(CC(=O)NO)S(=O)(=O)c1ccc(Oc2ccc(S(C)(=O)=O)cc2)cc1` [Example 3, N^1-hydroxy-N^2-(2-isopropoxyethyl)-N^2-({4-[4-(methylsulfonyl)phenoxy]phenyl}sulfonyl)glycinamide], the IC50 in test [1] is greater than 100 nM; in test [2], 1000 nM.

Regarding `CC(C)(C(=O)NO)N(Cc1ccccc1)S(=O)(=O)c1ccc(Oc2ccc(S(C)(=O)=O)cc2)cc1` [Example 10, N′^2′-Benzyl-N′^1′-hydroxy-2-methyl-N′^2′-({4-[4-(methylsulfonyl)phenoxy]phenyl}sulfonyl)alaninamide], the results for the IC50 in test [1] and in test [2] were 2400 nM and 6800 nM, respectively.

Turning to `CS(=O)(=O)c1ccc(Oc2ccc(S(=O)(=O)N(Cc3ccccc3)C3(C(=O)NO)CCOCC3)cc2)cc1` [Example 12, 4-[Benzyl({4-[4-(methylsulfonyl)phenoxy]phenyl}sulfonyl)amino]-N-hydroxytetrahydoro-2H-pyrane-4-carboxamide], the IC50 in test [1] is less than 100 nM; in test [2], less than 100 nM; in test [3], greater than 10000 nM.

As to `CS(=O)(=O)c1ccc(Oc2ccc(S(=O)(=O)NCC(=O)NO)cc2)cc1` [Example 13, N′^1′-Hydroxy-N′^2′-({4-[4-(methylsulfonyl)phenoxy]phenyl}sulfonyl)glycinamide], the IC50 in test [1] was 900 nM; in test [2], 4700 nM; in test [3], greater than 10000 nM.

As for `CC(C)CN(C1(C(=O)NO)CCOCC1)S(=O)(=O)c1ccc(Oc2ccc(S(C)(=O)=O)cc2)cc1` [Example 15, N-Hydroxy-4-[isobutyl({4-[4-(methylsulfonyl)phenoxy]phenyl}sulfonyl)amino]tetrahydro-2H-pyrane-4-carboxamide], the values for the IC50 in test [1] and in test [2] were 300 nM and 700 nM, respectively.

For `CC(C)CN(C1(C(=O)NO)CCC1)S(=O)(=O)c1ccc(Oc2ccc(S(C)(=O)=O)cc2)cc1` [Example 18, N-Hydroxy-1-[isobutyl({4-[4-(methylsulfonyl)phenoxy]phenyl}sulfonyl)amino]cyclobutanecarboxamide], the IC50 in test [2] was found to be 500 nM; in test [3] it was 3300 nM.

For `CS(=O)(=O)c1ccc(Oc2ccc(S(=O)(=O)N(CC(=O)O)CC(=O)NO)cc2)cc1` [Example 24, N-{[(Hydroxyamino)carbonyl]methyl}-N-({4-[4-(methylsulfonyl)phenoxy]phenyl}sulfonyl)-glycine], the IC50 in test [1] and in test [2] was greater than 10000 nM in each case.

Regarding `CS(=O)(=O)c1ccc(Oc2ccc(S(=O)(=O)N(CCC(=O)O)C3(C(=O)NO)CCCC3)cc2)cc1` [Example 27, N-{1-[(Hydroxyamino)carbonyl]cyclopentyl}-N-({4-[4-(methylsulfonyl)phenoxy]phenyl}sulfonyl)-β-alanine], the IC50 in test [1] and in test [2] was greater than 10000 nM each time.

As to `CCOC(=O)CCN(C1(C(=O)NO)CCOCC1)S(=O)(=O)c1ccc(Oc2ccc(S(C)(=O)=O)cc2)cc1` [Example 31, Ethyl N-{4-[(hydroxyamino)carbonyl]tetrahydro-2H-pyran-4-yl}-N-({4-[4-(methylsulfonyl)phenoxy]phenyl}sulfonyl)-β-alaninate], the IC50 in test [1] is 800 nM; in test [2], 4900 nM.

For the compound `CS(=O)(=O)c1ccc(Oc2ccc(S(=O)(=O)N(CCC(=O)O)CC(=O)NO)cc2)cc1` [Example 36, N-[2-(Hydroxyamino)-2-oxoethyl]-N-({4-[4-(methylsulfonyl)phenoxy]phenyl}sulfonyl)-β-alanine], the IC50 in test [1] was 2900 nM; in test [2], greater than 100 nM.

For the compound `COCCCN(CC(=O)NO)S(=O)(=O)c1ccc(Oc2ccc(S(C)(=O)=O)cc2)cc1` [Example 43, N^1-Hydroxy-N^2-(3-methoxypropyl)-N^2-({4-[4-(methylsulfonyl)phenoxy]phenyl}sulfonyl)glycinamide], the IC50 was 1500 nM in test [1] and 600 nM in test [2].

As for `COCCN(CC(=O)NO)S(=O)(=O)c1ccc(Oc2ccc(S(C)(=O)=O)cc2)cc1` [Example 44, N^1-Hydroxy-N^2-(2-methoxyethyl)-N^2-({4-[4-(methylsulfonyl)phenoxy]phenyl}sulfonyl)glycinamide], the results for the IC50 in test [1] and in test [2] were greater than 100 nM and greater than 10000 nM, respectively.

As for `CCOC(=O)CN(C1(C(=O)NO)CCC1)S(=O)(=O)c1ccc(Oc2ccc(S(C)(=O)=O)cc2)cc1` [Example 46, Ethyl N-{1-[(hydroxyamino)carbonyl]cyclobutyl}-N-({4-[4-(methylsulfonyl)phenoxy]phenyl}sulfonyl)glycinate], the IC50 in test [1] and in test [2] was greater than 100 nM in each case.

Take `CS(=O)(=O)c1ccc(Oc2ccc(S(=O)(=O)NC3(C(=O)NO)CCC3)cc2)cc1` [Example 48, N-Hydroxy-1-[({4-[4-(methylsulfonyl)phenoxy]phenyl}sulfonyl)amino]cyclobutanecarboxamide]: the IC50 in test [1] and in test [2] was greater than 100 nM in each case.

Consider `CS(=O)(=O)c1ccc(Oc2ccc(CC3Sc4ccc(C(=O)O)cc4N(CC(=O)NO)C3=O)cc2)cc1` (stereo not shown) [Example 50], for which the IC50 was greater than 100 nM in test [1] and 244 nM in test [2].

On to `COc1ccc(Oc2ccc(CC3Sc4ccc(C(=O)O)cc4N(CC(=O)NO)C3=O)cc2)cc1` (stereo not shown) [compound 1, reference compound], for which the IC50 in test [1] and in test [2] was greater than 100 nM each time.
